# Assay results taken from paper PMC3502511, “Inhibition of the Prokaryotic Pentameric Ligand-Gated Ion Channel ELIC by Divalent Cations” (PLoS Biology, 2012).
# pEC50: −log10 of the molar value.
# Tests used:
# ELIC D158A = target: T1, ELIC D158A (Dickeya chrysanthemi, UniProt P0C7B7, D158A/INS163G); assay: Two-electrode voltage clamp, ELIC D158A in oocytes; format: cell-based, Erwinia chrysanthemi; details: agonist cysteamine
# T1 construct: expressed in transfected cells; host or cells: X. laevis oocytes
# Method: (§1) Constructs containing the gene of either the WT or mutant channels preceded by the signal sequence of the chicken α7nAchR were cloned into the pTLN vector for expression in X. laevis oocytes. After linearization of the plasmid DNA by MluI, capped complementary RNA was transcribed with the mMessage mMachine kit (Ambion) and purified with the RNeasy kit (Qiagen). For expression, 1–50 ng of RNA was injected into defolliculated oocytes. Two-electrode voltage clamp measurements were performed 1 d after injection at 20°C (OC-725B, Warner Instrument Corp.). Currents were recorded in bath solutions containing 10 mM HEPES (pH 7), 130 mM NaCl, and the indicated concentrations of cysteamine and divalent cations. In case of solutions containing Zn^2+, cysteamine was replaced by propylamine. The membrane potential in all dose–response measurements was set to −40 mV. As ELIC is permeable to divalent cations, we tested if endogenous calcium-activated chloride channels affected our measurements. To chelate intracellular calcium ions, the oocytes were incubated for 15 to 30 min in bath solutions lacking divalent ions but containing 10 µM BAPTA-AM.
# ELIC N251A = target: T2, ELIC N251A (Dickeya chrysanthemi, UniProt P0C7B7, N250A); assay: Two-electrode voltage clamp, ELIC N251A in oocytes; format: cell-based, Erwinia chrysanthemi; details: agonist cysteamine
# T2 construct: expressed in transfected cells; host or cells: X. laevis oocytes
# Method: as §1
# ELIC R91A = target: T3, ELIC R91A (Dickeya chrysanthemi, UniProt P0C7B7, INS163G/R91A); assay: Two-electrode voltage clamp, ELIC R91A in oocytes; format: cell-based, Erwinia chrysanthemi; details: R91A, agonist cysteamine
# T3 construct: expressed in transfected cells; host or cells: X. laevis oocytes
# Method: as §1
# ELIC D158N = target: T4, ELIC D158N (Dickeya chrysanthemi, UniProt P0C7B7, D158N/INS163G); assay: Two-electrode voltage clamp, ELIC D158N in oocytes; format: cell-based, Erwinia chrysanthemi; details: agonist cysteamine
# T4 construct: expressed in transfected cells; host or cells: X. laevis oocytes
# Method: as §1
# ELIC S84A = assay: Two-electrode voltage clamp, ELIC S84A in oocytes; format: cell-based, Erwinia chrysanthemi; details: S84A as printed in the N251A line (r30); Ca^2+ 10 mM; agonist cysteamine
# Method: as §1
# ELIC D113A = target: T5, ELIC D113A (Dickeya chrysanthemi, UniProt P0C7B7, D113A/INS163G); assay: Two-electrode voltage clamp, ELIC D113A in oocytes; format: cell-based, Erwinia chrysanthemi; details: agonist cysteamine
# T5 construct: expressed in transfected cells; host or cells: X. laevis oocytes
# Method: as §1
# ELIC E150A = target: T6, ELIC E150A (Dickeya chrysanthemi, UniProt P0C7B7, E150A/INS163G); assay: Two-electrode voltage clamp, ELIC E150A in oocytes; format: cell-based, Erwinia chrysanthemi; details: agonist cysteamine
# T6 construct: expressed in transfected cells; host or cells: X. laevis oocytes
# Method: as §1
# ELIC E150Q = target: T7, ELIC E150Q (Dickeya chrysanthemi, UniProt P0C7B7, E150Q/INS163G); assay: Two-electrode voltage clamp, ELIC E150Q in oocytes; format: cell-based, Erwinia chrysanthemi; details: agonist cysteamine
# T7 construct: expressed in transfected cells; host or cells: X. laevis oocytes
# Method: as §1
# ELIC D86A = target: T8, ELIC D86A (Dickeya chrysanthemi, UniProt P0C7B7, D86A/INS163G); assay: Two-electrode voltage clamp, ELIC D86A in oocytes; format: cell-based, Erwinia chrysanthemi; details: agonist cysteamine
# T8 construct: expressed in transfected cells; host or cells: X. laevis oocytes
# Method: as §1
# ELIC WT = target: T9, ELIC WT (Dickeya chrysanthemi, UniProt P0C7B7); assay: cell-based; format: cell-based, Erwinia chrysanthemi; details: agonist cysteamine
# T9 construct: expressed in transfected cells; host or cells: X. laevis oocytes (cRNA injection, pTLN vector)
# Method: as §1
# ELIC D113A/D158A = target: T10, ELIC D113A/D158A (Dickeya chrysanthemi, UniProt P0C7B7, D113A/D158A/INS163G); assay: cell-based; format: cell-based, Erwinia chrysanthemi; details: 113A/158A, agonist cysteamine
# T10 construct: expressed in transfected cells; host or cells: X. laevis oocytes
# Method: as §1
# ELIC = target: T11, ELIC (Dickeya chrysanthemi, UniProt P0C7B7, INS163G); details: single channel data; ref Marabelli et al., in preparation; cited from earlier work
# T11 construct: expressed in transfected cells; host or cells: HEK 293 cells (ATCC CRL-1573), pcDNA3
# ELIC D113N = target: T12, ELIC D113N (Dickeya chrysanthemi, UniProt P0C7B7, D113N/INS163G); assay: Two-electrode voltage clamp, ELIC D113N in oocytes; format: cell-based, Erwinia chrysanthemi; details: agonist cysteamine
# T12 construct: expressed in transfected cells; host or cells: X. laevis oocytes
# Method: as §1
smiles,measurement,setting,value
NCCS [cysteamine],pEC50,ELIC D158A; Ca^2+ 0 mM,2.75
same,pEC50,ELIC D158A; Ca^2+ 1 mM,2.75
same,pEC50,ELIC D158A; Ca^2+ 5 mM,2.48
same,pEC50,ELIC D158A; Ca^2+ 10 mM,2.27
same,pEC50,ELIC D158A; Ca^2+ 20 mM,2.03
same,pEC50,ELIC N251A; Ca^2+ 0 mM,3.54
same,pEC50,ELIC N251A; Ca^2+ 1 mM,3.08
same,pEC50,ELIC N251A; Ca^2+ 5 mM,2.72
same,pEC50,ELIC R91A; ACh 1 mM,3.40
same,pEC50,ELIC R91A; ACh 5 mM,3.06
same,pEC50,ELIC R91A; ACh 10 mM,2.75
same,pEC50,ELIC R91A; Ca^2+ 0 mM,4.05
same,pEC50,ELIC R91A; Ca^2+ 0.5 mM,3.62
same,pEC50,ELIC R91A; Ca^2+ 1 mM,3.39
same,pEC50,ELIC R91A; Ca^2+ 5 mM,3.04
same,pEC50,ELIC R91A; TMA 10 mM,3.64
same,pEC50,ELIC R91A; TMA 25 mM,3.48
same,pEC50,ELIC R91A; TMA 50 mM,3.23
same,pEC50,ELIC D158N; Ca^2+ 0 mM,2.41
same,pEC50,ELIC D158N; Ca^2+ 1 mM,2.25
same,pEC50,ELIC D158N; Ca^2+ 5 mM,2.07
same,pEC50,ELIC D158N; Ca^2+ 10 mM,1.95
same,pEC50,ELIC S84A,2.27
same,pEC50,ELIC D113A; Ca^2+ 0 mM,3.02
same,pEC50,ELIC D113A; Ca^2+ 1 mM,3.06
same,pEC50,ELIC D113A; Ca^2+ 2.5 mM,2.84
same,pEC50,ELIC D113A; Ca^2+ 5 mM,2.73
same,pEC50,ELIC D113A; Ca^2+ 10 mM,2.54
same,pEC50,ELIC D113A; Ca^2+ 25 mM,2.20
same,pEC50,ELIC E150A; Ca^2+ 0 mM,2.85
same,pEC50,ELIC E150A; Ca^2+ 1 mM,2.66
same,pEC50,ELIC E150A; Ca^2+ 5 mM,2.21
same,pEC50,ELIC E150A; Ca^2+ 10 mM,2.05
same,pEC50,ELIC E150Q; Ca^2+ 0 mM,2.53
same,pEC50,ELIC E150Q; Ca^2+ 1 mM,2.28
same,pEC50,ELIC E150Q; Ca^2+ 5 mM,1.84
same,pEC50,ELIC E150Q; Ca^2+ 10 mM,1.66
same,pEC50,ELIC D86A; Ca^2+ 0 mM,3.24
same,pEC50,ELIC D86A; Ca^2+ 1 mM,2.64
same,pEC50,ELIC D86A; Ca^2+ 5 mM,2.27
same,pEC50,ELIC D86A; Ca^2+ 10 mM,1.95
same,pEC50,"ELIC WT; WT/0.25Ca^2+, ACh 0 mM",3.19
same,pEC50,"ELIC WT; WT/0.25Ca^2+, ACh 1 mM",2.94
same,pEC50,"ELIC WT; WT/0.25Ca^2+, ACh 5 mM",2.46
same,pEC50,"ELIC WT; WT/0.25Ca^2+, ACh 10 mM",2.29
same,pEC50,"ELIC WT; WT/0.5Ca^2+, ACh 0 mM",3.00
same,pEC50,"ELIC WT; WT/0.5Ca^2+, ACh 1 mM",2.74
same,pEC50,"ELIC WT; WT/0.5Ca^2+, ACh 5 mM",2.39
same,pEC50,"ELIC WT; WT/0.5Ca^2+, ACh 10 mM",2.07
same,pEC50,"ELIC WT; WT/1Ca^2+, ACh 0 mM",2.76
same,pEC50,"ELIC WT; WT/1Ca^2+, ACh 1 mM",2.57
same,pEC50,"ELIC WT; WT/1Ca^2+, ACh 5 mM",2.29
same,pEC50,"ELIC WT; WT/1Ca^2+, ACh 10 mM",2.08
same,pEC50,"ELIC WT; WT/BAPTA, Ca^2+ 0 mM",3.44
same,pEC50,"ELIC WT; WT/BAPTA, Ca^2+ 0.25 mM",3.08
same,pEC50,"ELIC WT; WT/BAPTA, Ca^2+ 0.5 mM",2.97
same,pEC50,"ELIC WT; WT/BAPTA, Ca^2+ 1.0 mM",2.65
same,pEC50,"ELIC WT; WT, ACh 1 mM",3.24
same,pEC50,"ELIC WT; WT, ACh 5.0 mM",2.83
same,pEC50,"ELIC WT; WT, ACh 10.0 mM",2.65
same,pEC50,"ELIC WT; WT, Ba^2+ 1 mM",3.12
same,pEC50,"ELIC WT; WT, Ba^2+ 5 mM",2.57
same,pEC50,"ELIC WT; WT, Ba^2+ 10 mM",2.28
same,pEC50,"ELIC WT; WT, Ca^2+ 0 mM",3.44
same,pEC50,"ELIC WT; WT, Ca^2+ 0.1 mM",3.46
same,pEC50,"ELIC WT; WT, Ca^2+ 0.25 mM",3.19
same,pEC50,"ELIC WT; WT, Ca^2+ 0.5 mM",3.00
same,pEC50,"ELIC WT; WT, Ca^2+ 1.0 mM",2.76
same,pEC50,"ELIC WT; WT, Ca^2+ 2.5 mM",2.61
same,pEC50,"ELIC WT; WT, Ca^2+ 5.0 mM",2.36
same,pEC50,"ELIC WT; WT, Mg^2+ 1 mM",2.98
same,pEC50,"ELIC WT; WT, Mg^2+ 5 mM",2.52
same,pEC50,"ELIC WT; WT, Mg^2+ 10 mM",2.27
same,pEC50,"ELIC WT; WT, Sr^2+ 1 mM",3.12
same,pEC50,"ELIC WT; WT, Sr^2+ 5 mM",2.68
same,pEC50,"ELIC WT; WT, Sr^2+ 10 mM",2.47
same,pEC50,ELIC D113A/D158A; Ba^2+ 1 mM,2.51
same,pEC50,ELIC D113A/D158A; Ba^2+ 5 mM,2.51
same,pEC50,ELIC D113A/D158A; Ba^2+ 10 mM,2.27
same,pEC50,ELIC D113A/D158A; Ca^2+ 0 mM,2.63
same,pEC50,ELIC D113A/D158A; Ca^2+ 1 mM,2.80
same,pEC50,ELIC D113A/D158A; Ca^2+ 5 mM,2.74
same,pEC50,ELIC D113A/D158A; Ca^2+ 10 mM,2.53
same,pEC50,ELIC D113A/D158A; Ca^2+ 25 mM,2.47
same,maximum Popen,ELIC,98%
same,pEC50,ELIC D113N; Ca^2+ 0 mM,3.04
same,pEC50,ELIC D113N; Ca^2+ 1 mM,2.74
same,pEC50,ELIC D113N; Ca^2+ 5 mM,2.25
same,pEC50,ELIC D113N; Ca^2+ 10 mM,2.01
